Measurements published in ChEMBL document CHEMBL1201862, “PubChem BioAssay data set” (2004).
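Five concentrations, 48 hours, 96-well plates. GI50 is the concentration that inhibits growth by half.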 Activity calls are given as the source filed them. No stated cut-off is given here; in the data, active = GI50 up to about 1.1 µM and inactive = higher.

Columns and labels:
Assay in all cases: growth of human tumour cells (NCI), 48 h
PC-3 = test system: PC-3
MOLT-4 = test system: MOLT-4
BT-549 = test system: BT-549
ACHN = test system: ACHN
Malme-3M = test system: Malme-3M
NCI-H226 = test system: NCI-H226
SK-MEL-28 = test system: SK-MEL-28
786-0 = test system: 786-0
RPMI-8226 = test system: RPMI-8226
T47D = test system: T47D
HCT-15 = test system: HCT-15
LOX IMVI = test system: LOX IMVI
TK-10 = test system: TK-10
SW-620 = test system: SW-620
KM12 = test system: KM12
NCI/ADR-RES = test system: NCI/ADR-RES
RXF 393 = test system: RXF 393
NCI-H522 = test system: NCI-H522
SF-539 = test system: SF-539
SK-MEL-5 = test system: SK-MEL-5
UACC-62 = test system: UACC-62
SNB-75 = test system: SNB-75
Hs-578T = test system: Hs-578T
SN12C = test system: SN12C
SK-MEL-2 = test system: SK-MEL-2
COLO 205 = test system: COLO 205
OVCAR-8 = test system: OVCAR-8
MCF7 = test system: MCF7
NCI-H23 = test system: NCI-H23
EKVX = test system: EKVX
OVCAR-5 = test system: OVCAR-5
K562 = test system: K562
UO-31 = test system: UO-31
HL-60 = test system: HL-60
UACC-257 = test system: UACC-257
OVCAR-3 = test system: OVCAR-3
CAKI-1 = test system: CAKI-1
SR = test system: SR
DU-145 = test system: DU-145
MDA-MB-435 = test system: MDA-MB-435
HOP-62 = test system: HOP-62
OVCAR-4 = test system: OVCAR-4
HCC 2998 = test system: HCC 2998
U-251 = test system: U-251
MDA-MB-231 = test system: MDA-MB-231
NCI-H460 = test system: NCI-H460
CCRF-CEM = test system: CCRF-CEM
A498 = test system: A498
IGROV-1 = test system: IGROV-1
SNB-19 = test system: SNB-19
HCT-116 = test system: HCT-116
MDA-N = test system: MDA-N
SF-268 = test system: SF-268
M14 = test system: M14
A549 = test system: A549
SF-295 = test system: SF-295
HT-29 = test system: HT-29

Measured: GI50

COC(=O)NN(C(=O)OC)c1c(-c2ccccc2)nc(SC)n1N
> 100 µM: HCT-15
inactive: PC-3 > 100 µM | MOLT-4 > 100 µM | BT-549 > 100 µM | ACHN > 100 µM | Malme-3M > 100 µM | NCI-H226 > 100 µM | SK-MEL-28 > 100 µM | 786-0 > 100 µM | RPMI-8226 > 100 µM | T47D > 100 µM | LOX IMVI > 100 µM | TK-10 > 100 µM | SW-620 > 100 µM | KM12 > 100 µM | NCI/ADR-RES > 100 µM | RXF 393 > 100 µM | NCI-H522 > 100 µM | SF-539 > 100 µM | SK-MEL-5 > 100 µM | UACC-62 > 100 µM | SNB-75 > 100 µM | Hs-578T > 100 µM | SN12C > 100 µM | SK-MEL-2 > 100 µM | COLO 205 > 100 µM | OVCAR-8 > 100 µM | MCF7 > 100 µM | NCI-H23 > 100 µM | EKVX > 100 µM | OVCAR-5 > 100 µM | K562 > 100 µM | UO-31 > 100 µM | HL-60 > 100 µM | UACC-257 > 100 µM | OVCAR-3 > 100 µM | CAKI-1 > 100 µM | SR > 100 µM | DU-145 > 100 µM | MDA-MB-435 > 100 µM | HOP-62 > 100 µM | OVCAR-4 > 100 µM | HCC 2998 > 100 µM | U-251 > 100 µM | MDA-MB-231 > 100 µM | NCI-H460 > 100 µM | CCRF-CEM > 100 µM | A498 > 100 µM | IGROV-1 > 100 µM | SNB-19 > 100 µM | HCT-116 > 100 µM | MDA-N > 100 µM | SF-268 > 100 µM | M14 > 100 µM | A549 > 100 µM | SF-295 > 100 µM

COc1ccc(-n2c(C)nc3ccc(NC4OCC(OC(C)=O)C(OC(C)=O)C4OC(C)=O)cc3c2=O)cc1 (centres undefined)
inactive: PC-3 > 100 µM | MOLT-4 > 100 µM | BT-549 > 100 µM | ACHN > 100 µM | Malme-3M > 100 µM | NCI-H226 > 100 µM | SK-MEL-28 > 100 µM | 786-0 > 100 µM | RPMI-8226 35.9 µM | T47D > 100 µM | LOX IMVI > 100 µM | TK-10 > 100 µM | SW-620 > 100 µM | KM12 > 100 µM | NCI/ADR-RES > 100 µM | RXF 393 > 100 µM | NCI-H522 > 100 µM | SK-MEL-5 > 100 µM | UACC-62 > 100 µM | SNB-75 > 100 µM | Hs-578T > 100 µM | SN12C > 100 µM | SK-MEL-2 > 100 µM | COLO 205 > 100 µM | OVCAR-8 > 100 µM | MCF7 > 100 µM | NCI-H23 > 100 µM | EKVX > 100 µM | OVCAR-5 > 100 µM | K562 > 100 µM | UO-31 > 100 µM | HL-60 32.4 µM | UACC-257 > 100 µM | OVCAR-3 > 100 µM | CAKI-1 > 100 µM | SR > 100 µM | DU-145 > 100 µM | MDA-MB-435 > 100 µM | HOP-62 > 100 µM | OVCAR-4 > 100 µM | HCC 2998 97.1 µM | U-251 > 100 µM | MDA-MB-231 > 100 µM | HT-29 > 100 µM | NCI-H460 > 100 µM | A498 > 100 µM | IGROV-1 > 100 µM | SNB-19 > 100 µM | HCT-116 > 100 µM | MDA-N > 100 µM | SF-268 > 100 µM | SF-295 > 100 µM
> 100 µM: HCT-15
